Source: ChEMBL document CHEMBL1201862, “PubChem BioAssay data set” (2004)
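96-well plates; 48 h exposure; 5 concentrations. Endpoints by linear interpolation between flanking doses. Not reached: highest tested concentration assigned. GI50 is the concentration that inhibits growth by half.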 Activity calls are given as the source filed them. No stated cut-off is given here; in the data, active = GI50 up to about 1.1 µM and inactive = higher.

Experiments:
Assay in all cases: DTP human tumour cell line panel, 48 h
[1] = tested on: SNB-78
[2] = tested on: UO-31
[3] = tested on: ACHN
[4] = tested on: A549
[5] = tested on: SF-539
[6] = tested on: SF-268
[7] = tested on: Malme-3M
[8] = tested on: SF-295
[9] = tested on: DLD-1
[10] = tested on: 786-0
[11] = tested on: SR
[12] = tested on: SK-MEL-28
[13] = tested on: SK-MEL-5
[14] = tested on: DMS-273
[15] = tested on: UACC-62
[16] = tested on: MDA-N
[17] = tested on: IGROV-1
[18] = tested on: M19-MEL
[19] = tested on: NCI-H23
[20] = tested on: HOP-92
[21] = tested on: NCI-H226
[22] = tested on: OVCAR-4
[23] = tested on: OVCAR-3
[24] = tested on: CAKI-1
[25] = tested on: SNB-75
[26] = tested on: HOP-18
[27] = tested on: SNB-19
[28] = tested on: KM-20L2
[29] = tested on: HOP-62
[30] = tested on: OVCAR-8
[31] = tested on: XF498
[32] = tested on: MCF7
[33] = tested on: RXF 393
[34] = tested on: NCI-H460
[35] = tested on: A498
[36] = tested on: NCI-H522
[37] = tested on: HCT-15
[38] = tested on: HCT-116
[39] = tested on: T47D
[40] = tested on: KM12
[41] = tested on: M14
[42] = tested on: SW-620
[43] = tested on: OVCAR-5
[44] = tested on: LOX IMVI
[45] = tested on: UACC-257
[46] = tested on: DMS-114
[47] = tested on: SK-MEL-2
[48] = tested on: HCC 2998
[49] = tested on: MDA-MB-435
[50] = tested on: BT-549
[51] = tested on: TK-10
[52] = tested on: SK-OV-3
[53] = tested on: PC-3
[54] = tested on: U-251
[55] = tested on: DU-145
[56] = tested on: NCI/ADR-RES
[57] = tested on: SN12C

Measured: GI50

CNC(=O)ON(C(C)=O)C(=O)NC [CARACEMIDE]
inactive: [1] 133 µM | [2] 54.3 µM | [3] 18.7 µM | [4] 92.3 µM | [5] 64.4 µM | [6] 75 µM | [7] 44.1 µM | [8] 115 µM | [9] 95.1 µM | [10] 11 µM | [11] 28.1 µM | [12] 69.5 µM | [13] 40.3 µM | [14] 75.2 µM | [15] 47.6 µM | [16] 15.8 µM | [17] 86.9 µM | [18] 112 µM | [19] 41.8 µM | [20] 17.9 µM | [21] 95.1 µM | [22] 63.8 µM | [23] 54.1 µM | [24] 55.2 µM | [25] 70.3 µM | [26] 97.7 µM | [27] 157 µM | [28] 104 µM | [29] 140 µM | [30] 78.3 µM | [31] 41.3 µM | [32] 51.5 µM | [33] 34.3 µM | [34] 78.7 µM | [35] 87.7 µM | [36] 21.5 µM | [38] 45 µM | [39] 9.38 µM | [40] 59.8 µM | [41] 9.55 µM | [42] 52 µM | [43] 126 µM | [44] 33.7 µM | [45] 69.5 µM | [46] 31.1 µM | [47] 26 µM | [48] > 100 µM | [49] 15.3 µM | [50] 19.3 µM | [51] 25.5 µM | [52] 106 µM | [53] 26.5 µM | [54] 82.8 µM | [55] 41.3 µM | [56] 67.1 µM | [57] 58.9 µM
31 µM: [37]
